Measured values published in patent US20180055844A1 (Celgene Corporation, priority 2011, published 2018).
Where “and” joins values, the source holds several entries; their conditions need not be identical. Equal entries are not always repeated. Where two headings read alike, the source gives them in different places.

Columns and labels:
[1] = tested on: HUVEC; assay: HUVEC proliferation; assay type: cell-based, human
[2] = tested on: U251; assay: Invasion of solid tumor cells; assay type: cell-based; details: Homo sapiens, U-251; U251 (PDGF), glioblastoma
[3] = Oral pharmacokinetics; assay type: in vivo; details: SCID mouse
[4] = tested on: DoHH2; assay: Cell cycle analysis; assay type: cell-based
Description: (§1) Cells were treated with DMSO or an amount of a compound provided herein for 48 hours. Propidium iodide staining for cell cycle was performed using CycleTEST PLUS (Becton Dickinson) according to manufacturer's protocol. Following staining, cells were analyzed by a FACSCalibur flow cytometer using ModFit LT software (Becton Dickinson).

[5] = tested on: WSU-DLCL2; assay: Cell cycle analysis; assay type: cell-based
Description: as §1

[6] = tested on: Rec-1 cells; assay: Cytotoxicity assay (3 day ATP production); assay type: cell-based; details: Homo sapiens, Rec1; 72 hours; read-out: REC1 (MCL) IC50
Description: (§2) Cells line Farage, DOHH2 and Rec-1 were obtained from American Type Culture Collection (Manassas, Va., USA) Cytotoxicity assays were measured in 3 day ATP production assays as follows: The cells were plated in black/clear-bottom 96-well TC plates (BD Falcon, Cat #353948) at 3000 cells/75 μL (for DoHH-2 and Farage cells) or 6000 cells/75 μL (Rec-1 cells) media per well. […] Plates were then sealed with breathable sealing films (ISC BioExpress, Cat # T-2421-50) and placed in a 37° C., 5% CO2 humidified incubator for 72 hours. In addition, cells were seeded in a separate plate in the same manner as above, 25 μL medium in 1% DMSO was added to each well. This plate was immediately tested in the CellTiter-Glo Luminescent Cell Viability Assay (Promega, Cat # G7572) as 0 time point and the results were used to calculate GIC50 in the Farage and DOHH-2 cell experiments After 72 hours of incubation, 100 μL of CellTiter-Glo reagent were added to each well and incubated at room temperature with gentle shaking for 30 minutes. The plates were then analyzed for luminescence in a TopCount NXT Reader (Packard). Each well was counted for one second. Values for duplicate wells were averaged and then compared to the zero time point DMSO control (0% inhibition) to calculate the percentage inhibition of cell growth. Mean DOHH-2 GIC50 values and Farage GIC50 values were calculated from three experiments. Rec-1 IC50 values were calculated from two experiments.

[7] = tested on: Farage cells; assay: Cytotoxicity assay (3 day ATP production); assay type: cell-based; details: 72 hours, read-out: Farage (GCB-DLBCL) GIC50
Description: as §2

[8] = tested on: DoHH-2 cells; assay: Cytotoxicity assay (3 day ATP production); assay type: cell-based; details: Homo sapiens, 72 hours, read-out: DoHH2 (FL) GIC50
Description: as §2

[9] = tested on: B cell; assay: B cell proliferation; assay type: cell-based
[10] = PK profiles in male monkeys; assay type: in vivo, monkey; details: for AUC(0-t) / Cmax: monkey, in vivo, po, male monkeys
[11] = tested on: SF295; assay: Solid tumor cell colony formation; assay type: cell-based; details: Homo sapiens, SF-295
[12] = tested on: megakaryocyte progenitor cells; assay: MK colonies (megakaryocyte progenitor cells); assay type: cell-based
[13] = tested on: HUVEC; assay: HUVEC migration; assay type: cell-based; details: Homo sapiens
[14] = tested on: HIF-1α; assay: HIF-1α protein expression in solid tumor cell lines; assay type: cell-based; details: 1 μM
[15] = tested on: H929 myeloma cells; assay: Cell cycle in siRNA-transfected H929 cells; assay type: cell-based; details: 72 h treatment
Description: as §1
The effect of cereblon in H929 myeloma cells was also evaluated. H929 cells were transfected with mock, negative control siRNA and CRBN-siRNA-7 for 24, 48, 72 and 96 hours.

[16] = tested on: lipopolysaccharide-stimulated human peripheral blood mononuclear cells (hPBMCs); assay: PBMC cytokine profiling; assay type: cell-based; details: for IC50: LPS-stimulated hPBMC
[17] = Oral administration for 7 consecutive days in rat; design: species or system male CD-IGS rat; details: in vivo
Description: The NOAEL was determined to be 1000 mg/kg/day.

[18] = tested on: SK-HEP-1; assay: Solid tumor cell colony formation; assay type: cell-based; details: Homo sapiens, SK-HEP1

Compound: Cc1nc2cccc(N)c2c(=O)n1C1CCC(=O)NC1=O (stereo not drawn) [compound of Formula I, 3-(5-amino-2-methyl-4-oxo-4H-quinazolin-3-yl)-piperidine-2,6-dione]
- HUVEC proliferation [1]: did not inhibit
- growth factor-induced HUVEC proliferation ([1]; growth factor-induced): either enhanced or did not inhibit
- IC50 [2]: 3700 nM
- AUC ([3]; in vivo, 3 mg/kg, 3 mpk po): 7100 ng·h/mL and 25 µM·h
- Cmax ([3]; in vivo, 3 mg/kg, 3 mpk po): 2900 ng/mL and 10 µM
- Exposures (AUC(0-t)) versus dose ([3]; up to 30 mg/kg): increased in a dose proportional manner
- G1 arrest [4]: induced G1 arrest
- G1 arrest [5]: induced G1 arrest
- IC50 [6]: 470 nM
- IC50 [7]: 700 nM
- IC50 [8]: 610 nM
- EC50 [9]: 15 nM
- AUC(0-t) ([10]; 0.3 mg/kg): 1300 ng·h/mL and 4.5 µM·h
- Cmax ([10]; 0.3 mg/kg): 100 ng/mL and 360 nM
- AUC(0-t) ([10]; 3 mg/kg): 14000 ng·h/mL and 49 µM·h
- Cmax ([10]; 3 mg/kg): 1100 ng/mL and 3.8 µM
- AUC(0-t) ([10]; 10 mg/kg): 38000 ng·h/mL and 130 µM·h
- Cmax ([10]; 10 mg/kg): 3100 ng/mL and 11 µM
- AUC(0-t) ([10]; 30 mg/kg): 99000 ng·h/mL and 350 µM·h
- Cmax ([10]; 30 mg/kg): 7700 ng/mL and 27 µM
- Exposures (AUC(0-t)) versus dose ([10]; up to 30 mg/kg, male monkey): increased in a dose proportional manner
- inhibition at 10 µM [11]: 12.9%
- inhibition of megakaryocyte progenitor cells ([12]; 10 μM): did not inhibit
- IC50 ([12]; read-out: Immature MK colonies IC50): > 10000 nM
- IC50 ([12]; read-out: Intermediate MK colonies IC50): > 10000 nM
- inhibition at 1 µM ([13]; read-out: inhibition of VEGF-induced migration): 38%
- inhibition at 1 µM ([13]; read-out: inhibition of bFGF-induced migration): 28%
- % Inhibition of HIF-1α protein expression ([14]; 786-O (renal cancer)): 41.70%
- % Inhibition of HIF-1α protein expression ([14]; DU145 (prostate cancer)): 66.01%
- % Inhibition of HIF-1α protein expression ([14]; HCT15 (colorectal cancer)): 69.26%
- % Inhibition of HIF-1α protein expression ([14]; HCT116 (colorectal cancer)): 74.60%
- % Inhibition of HIF-1α protein expression ([14]; HT29 (colorectal cancer)): 78.54%
- % Inhibition of HIF-1α protein expression ([14]; MCF-7 (breast cancer)): 74.82%
- % Inhibition of HIF-1α protein expression ([14]; Miapaca-3 (pancreatic cancer)): 33.72%
- % Inhibition of HIF-1α protein expression ([14]; Ovcar-3 (ovarian cancer)): 63.39%
- % Inhibition of HIF-1α protein expression ([14]; Skov-3 (ovarian cancer)): 100.00%
- % Inhibition of HIF-1α protein expression ([14]; U87 (brain cancer)): 73.81%
- drug-induced delay in cell cycle progression (decrease of the number of cells in S phase) ([15]; H929, control (before CRBN knockdown)): 65%
- drug-induced delay in cell cycle progression (decrease of the number of cells in S phase) ([15]; H929, knockdown of CRBN): 22%
- activity at 0.1 µM ([16]; read-out: IL-10 production, mean percent of control): 480%
- activity at 0.1 µM ([16]; read-out: MCP-1 production, mean percent of control): 236%
- activity at 0.1 µM ([16]; read-out: RANTES production, mean percent of control): 131%
- IC50 ([16]; read-out: IL-8 production IC50): > 10000 nM
- IC50 ([16]; read-out: MIP-1α production IC50): 300 nM
- IC50 ([16]; read-out: MIP-1β production IC50): > 10000 nM
- NOAEL at 7 days ([17]; oral, 7 consecutive days, male CD-IGS rat): 1000 mg/kg/day
- exposure versus dose ([17]; rat): near dose proportional exposure increases
- inhibition at 10 µM [18]: 6%
